Source: US20020111274A1, “1-alkyl-3-[1-(substituted phenyl) benzotriazol-6-yl] uracils” (BASF Aktiengesellschaft, priority 2000, published 2002)

Tests used:
Set-up in all cases: scale not given here
[1] = system: ABUTH Velvetleaf; test: Preemergence herbicidal evaluation, ABUTH; type: in vivo, Abutilon theophrasti, Medic.; conditions: preemergence
In short: (§1)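 Seeds mixed with potting soil in cups, then sprayed preemergence with aqueous acetone test solution at about 0.013 to 0.800 kg per hectare equivalent. Cups kept under standard greenhouse care; plants rated on a visual scale four to five weeks after treatment.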

[2] = system: CASOB Sicklepod; test: Postemergence herbicidal evaluation, CASOB; type: in vivo, Cassia obtusifolia, L.; conditions: postemergence spray, rated about two-three weeks after treatment
In short: (§2)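 Two-week-old seedlings sprayed postemergence with compound in 80/20 acetone/water plus 1.0% methylated seed oil, at about 0.006–0.400 kg/ha, through a nozzle at 40 psi. Plants kept under greenhouse conditions and visually rated about two–three weeks after treatment; ratings from repeat tests averaged.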

[3] = system: IPOHE Morningglory, Ivyleaf; test: Postemergence herbicidal evaluation, IPOHE; type: in vivo, Ipomoea hederacea, (L.) Jacq.; conditions: postemergence spray, rated about two-three weeks after treatment
In short: as §2

[4] = system: CASOB Sicklepod; test: Preemergence herbicidal evaluation, CASOB; type: in vivo, Cassia obtusifolia, L.; conditions: preemergence
In short: as §1

[5] = system: ORYSAT Rice, Tebonnet; test: Preemergence herbicidal evaluation, ORYSAT; type: in vivo, Oryza sativa, (L.); conditions: preemergence
In short: as §1

[6] = system: ZEAMX Corn, Field; test: Preemergence herbicidal evaluation, ZEAMX; type: in vivo, Zea mays, L. (Sammel-Bezeichnung); conditions: preemergence
In short: as §1

[7] = system: CHEAL Lambsquarters, Common; test: Postemergence herbicidal evaluation, CHEAL; type: in vivo, Chenopodium album, L.; conditions: postemergence spray, rated about two-three weeks after treatment
In short: as §2

[8] = system: GLXMAW Soybean, Williams; test: Preemergence herbicidal evaluation, GLXMAW; type: in vivo, Glycine max, (L.) Merr. cv Williams; conditions: preemergence
In short: as §1

[9] = system: ZEAMX Corn, Field; test: Postemergence herbicidal evaluation, ZEAMX; type: in vivo, Zea mays, L. (Sammel-Bezeichnung); conditions: postemergence spray, rated about two-three weeks after treatment
In short: as §2

[10] = system: GALAP Galium; test: Postemergence herbicidal evaluation, GALAP; type: in vivo, Galium aparine; conditions: postemergence spray, rated about two-three weeks after treatment
In short: as §2

[11] = system: ABUTH Velvetleaf; test: Postemergence herbicidal evaluation, ABUTH; type: in vivo, Abutilon theophrasti, Medic.; conditions: postemergence spray, rated about two-three weeks after treatment
In short: as §2

[12] = system: IPOHE Morningglory, Ivyleaf; test: Preemergence herbicidal evaluation, IPOHE; type: in vivo, Ipomoea hederacea, (L.) Jacq.; conditions: preemergence
In short: as §1

[13] = system: AMBEL Ragweed, Common; test: Postemergence herbicidal evaluation, AMBEL; type: in vivo, Ambrosia artemisifolia, L.; conditions: 0.008 kg/ha, postemergence spray, rated about two-three weeks after treatment
In short: as §2

COc1ccc(Cl)cc1-n1nnc2cc(F)c(-n3c(=O)cc(C(F)(F)F)n(C)c3=O)cc21 [Example 30]
ABUTH herbicidal rating ([1]; rate 0.016 kg/ha): 0.0
ABUTH herbicidal rating ([1]; rate 0.125 kg/ha): 6.0
Postemergence herbicidal rating CASOB ([2]; 0.008 kg/ha): 3.0
Postemergence herbicidal rating CASOB ([2]; 0.016 kg/ha): 4.0
Postemergence herbicidal rating CASOB ([2]; 0.032 kg/ha): 7.0
Postemergence herbicidal rating CASOB ([2]; 0.062 kg/ha): 8.0
Postemergence herbicidal rating IPOHE ([3]; 0.008 kg/ha): 9.0
Postemergence herbicidal rating IPOHE ([3]; 0.016 kg/ha): 9.0
Postemergence herbicidal rating IPOHE ([3]; 0.032 kg/ha): 9.0
Postemergence herbicidal rating IPOHE ([3]; 0.062 kg/ha): 9.0
CASOB herbicidal rating ([4]; rate 0.016 kg/ha): 0.0
CASOB herbicidal rating ([4]; rate 0.032 kg/ha): 1.0
CASOB herbicidal rating ([4]; rate 0.062 kg/ha): 0.0
CASOB herbicidal rating ([4]; rate 0.125 kg/ha): 2.0
ORYSAT herbicidal rating ([5]; rate 0.016 kg/ha): 0.0
ORYSAT herbicidal rating ([5]; rate 0.032 kg/ha): 1.0
ORYSAT herbicidal rating ([5]; rate 0.062 kg/ha): 2.0
ORYSAT herbicidal rating ([5]; rate 0.125 kg/ha): 4.0
ZEAMX herbicidal rating ([6]; rate 0.016 kg/ha): 1.0
ZEAMX herbicidal rating ([6]; rate 0.032 kg/ha): 3.0
ZEAMX herbicidal rating ([6]; rate 0.062 kg/ha): 5.0
ZEAMX herbicidal rating ([6]; rate 0.125 kg/ha): 7.0
Postemergence herbicidal rating CHEAL ([7]; 0.008 kg/ha): 9.0
Postemergence herbicidal rating CHEAL ([7]; 0.016 kg/ha): 9.0
Postemergence herbicidal rating CHEAL ([7]; 0.032 kg/ha): 9.0
Postemergence herbicidal rating CHEAL ([7]; 0.062 kg/ha): 9.0
GLXMAW herbicidal rating ([8]; rate 0.016 kg/ha): 1.0
GLXMAW herbicidal rating ([8]; rate 0.032 kg/ha): 1.0
GLXMAW herbicidal rating ([8]; rate 0.062 kg/ha): 1.0
GLXMAW herbicidal rating ([8]; rate 0.125 kg/ha): 2.0
Postemergence herbicidal rating ZEAMX ([9]; 0.008 kg/ha): 4.5
Postemergence herbicidal rating ZEAMX ([9]; 0.016 kg/ha): 4.5
Postemergence herbicidal rating ZEAMX ([9]; 0.032 kg/ha): 5.0
Postemergence herbicidal rating ZEAMX ([9]; 0.062 kg/ha): 5.0
Postemergence herbicidal rating GALAP ([10]; 0.008 kg/ha): 1.0
Postemergence herbicidal rating GALAP ([10]; 0.016 kg/ha): 3.0
Postemergence herbicidal rating GALAP ([10]; 0.032 kg/ha): 4.0
Postemergence herbicidal rating GALAP ([10]; 0.062 kg/ha): 4.0
Postemergence herbicidal rating ABUTH ([11]; 0.008 kg/ha): 9.0
Postemergence herbicidal rating ABUTH ([11]; 0.016 kg/ha): 9.0
Postemergence herbicidal rating ABUTH ([11]; 0.032 kg/ha): 9.0
Postemergence herbicidal rating ABUTH ([11]; 0.062 kg/ha): 9.0
IPOHE herbicidal rating ([12]; rate 0.016 kg/ha): 0.0
IPOHE herbicidal rating ([12]; rate 0.032 kg/ha): 0.0
IPOHE herbicidal rating ([12]; rate 0.062 kg/ha): 4.0
IPOHE herbicidal rating ([12]; rate 0.125 kg/ha): 3.0
Postemergence herbicidal rating AMBEL [13]: 9.0
